Results on 14 compounds are retold here after patent publication US9216973B2, “Insecticidal compounds” (Syngenta Participations AG, priority 2008, dated 2015).

Holding throughout (type): in vivo
Test [1] deals with Heliothis virescens (Tobacco budworm). The experiment in a line: Heliothis virescens egg test on artificial diet. The settings on record: for pest or weed control at 200 ppm: 96 h, 200 ppm (concentration in well 18 ppm), eggs 0-24 h old on artificial diet, egg mortality, larval mortality, growth regulation after 4 days, read-out: control of Heliothis virescens; for effect on mortality, feeding behavior, or growth regulation: same protocol, 200 ppm. The method, then:
(§1) This Example illustrates the insecticidal and acaricidal properties of compounds of formula (I). The tests were performed as follows:
(§2) Cotton leaf discs were placed on agar in a 24-well microtiter plate and sprayed with test solutions at an application rate of 200 ppm. After drying, the leaf discs were infested with 5 L1 larvae. The samples were checked for mortality, feeding behavior, and growth regulation 3 days after treatment (DAT). The following compound gave at least 80% control of Spodoptera littoralis: A1, A2, A5, A6, A7, A8, A10, A11, A12, A13, A14, A15, A16, A17, A18, A19, A21, A22, A23, A24, A25, A30, A31, A32, A33, A34, A35, A39, A40, A41 A42, A43, A44, A45, A46, A47, A48, A49, A50, A51, A53, A54, A55, A59, A60, A61, A62. Heliothis virescens (Tobacco budworm): Eggs (0-24 h old) were placed in 24-well microtiter plate on artificial diet and treated with test solutions at an application rate of 200 ppm (concentration in well 18 ppm) by pipetting. After an incubation period of 4 days, samples were checked for egg mortality, larval mortality, and growth regulation. The following compound gave at least 80% control of Heliothis virescens: A1, A2, A3, A4, A5, A6, A7, A8, A10, A11, A12, A13, A14, A15, A16, A18, A19, A21, A22, A24, A25, A30, A31, A32, A33, A34, A35, A37, A38, A39, A40, A42, A43, A44, A45, A46, A47, A48, A49, A50, A51, A55, AA57, A58, A59, A60, A61, A62. Plutella xylostella (Diamond back moth): 24-well microtiter plate (MTP) with artificial diet was treated with test solutions at an application rate of 200 ppm (concentration in well 18 ppm) by pipetting. After drying, the MTP's were infested with L2 larvae (7-12 per well). After an incubation period of 6 days, samples were checked for larval mortality and growth regulation. The following compound gave at least 80% control of Plutella xylostella: A1, A2, A5, A6, A7, A8, A9, A10, A11, A12, A13, A14, A15, A16, A17, A18, A19, A20, A21, A22, A24, A25, A30, A31, A32, A33, A34, A35, A37, A38, A39, A40, A42, A43, A44, A45, A46, A47, A48, A49, A50, A51, A52, A53, A54, A55, A57, A58, A59, A60, A61, A62, B3. Diabrotica balteata (Corn root worm): A 24-well microtiter plate (MTP) with artificial diet was treated with test solutions at an application rate of 200 ppm (concentration in well 18 ppm) by pipetting. After drying, the MTP's were infested with L2 larvae (6-10 per well). After an incubation period of 5 days, samples were checked for larval mortality and growth regulation. The following compound gave at least 80% control of Diabrotica balteata: A1, A2, A5, A6, A7, A10, A11, A12, A13, A14, A15, A16, A17, A18, A19, A21, A22, A24, A25, A30, A31, A32, A33, A34, A35, A38, A39, A40, A42, A43, A44, A45, A46, A47, A48, A49, A50, A59, A60, A61, A62. Thrips tabaci (Onion thrips): Sunflower leaf discs were placed on agar in a 24-well microtiter plate and sprayed with test solutions at an application rate of 200 ppm. After drying, the leaf discs were infested with an […] population of mixed ages. After an incubation period of 7 days, samples were checked for mortality. The following compounds gave at least 80% control of Thrips tabaci: A1, A2, A5, A6, A7, A8, A10, A12, A13, A14, A15, A16, A17, A18, A19, A21, A24, A25, A30, A31, A32, A33, A34, A35, A39, A42, A43, A44, A45, A46, A47, A48, A49, A50, A51, A53, A54, A57, A58, A59, A60, A61, A62. Tetranychus urticae (Two-spotted spider mite): Bean leaf discs on agar in 24-well microtiter plates were sprayed with test solutions at an application rate of 200 ppm. After drying, the leaf discs are infested with mite populations of mixed ages. 8 days later, discs are checked for egg mortality, larval mortality, and adult mortality. The following compound gave at least 80% control of Tetranychus urticae: A1, A2, A4, A5, A6, A7, A8, A10, A11, A12, A13, A14, A15, A16, A17, A18, A19, A20, A21, A22, A30, A31, A32, A33, A34, A35, A39, A40, A41, A42, A43, A44, A45, A46, A47, A48, A49, A50, A51, A53, A54, A55, A57, A59, A60, A61, A62.

Test [2] deals with Plutella xylostella (Diamond back moth). The experiment in a line: Plutella xylostella larvae test on artificial diet. The settings on record: for pest or weed control at 200 ppm: 144 h, 200 ppm (concentration in well 18 ppm), artificial diet, L2 larvae, larval mortality and growth regulation after 6 days; for effect on mortality, feeding behavior, or growth regulation: same protocol, 200 ppm. The procedure: as §1, §2

Test [3] has as its system Diabrotica balteata (Corn root worm). Briefly: Diabrotica balteata larvae test on artificial diet. The settings on record: for pest or weed control at 200 ppm: 120 h, 200 ppm (concentration in well 18 ppm), artificial diet, L2 larvae, larval mortality and growth regulation after 5 days; for effect on mortality, feeding behavior, or growth regulation: same protocol, 200 ppm. The method, then: as §1, §2

The test system of test [4] is Thrips tabaci (Onion thrips). The experiment in a line: Thrips tabaci sunflower leaf disc spray test. The settings on record: for pest or weed control at 200 ppm: foliar, 168 h, 200 ppm spray on sunflower leaf discs, population of mixed ages, mortality after 7 days; for effect on mortality, feeding behavior, or growth regulation: same protocol, 200 ppm. The method, then:
as §1, §2

For test [5], the system named is Tetranychus urticae (Two-spotted spider mite). The experiment in a line: Tetranychus urticae bean leaf disc spray test. The settings on record: for pest or weed control at 200 ppm: foliar, 192 h, 200 ppm spray on bean leaf discs, mite populations of mixed ages, egg, larval and adult mortality 8 days later, read-out: control of Tetranychus urticae; for effect on mortality, feeding behavior, or growth regulation: same protocol, 200 ppm. The procedure: as §1, §2

`Cc1cc(C2CC(c3cc(Cl)cc(Cl)c3)(C(F)(F)F)ON2C)ccc1C(=O)NC1C[S+]([O-])C1` (stereo not shown) [A18]: the pest or weed control at 200 ppm in test [1], in test [2], in test [3], in test [4] and in test [5] was not below 80% in each case.
As to `Cc1cc(C2CC(c3cc(Cl)cc(Cl)c3)(C(F)(F)F)ON2C)ccc1C(=O)NC1CS(=O)(=O)C1` (stereo not shown) [A19], the pest or weed control at 200 ppm in test [1], in test [2], in test [3], in test [4] and in test [5] was not below 80% each time.
As for `Cc1cc(C2CC(c3cc(Cl)cc(Cl)c3)(C(F)(F)F)ON2C)ccc1C(=O)NC1CSC1` (stereo not shown) [A21], the pest or weed control at 200 ppm in test [1], in test [2], in test [3], in test [4] and in test [5] was not below 80% in each case.
For the compound `Cc1nc2c(C3=NOC(c4cc(Cl)cc(Cl)c4)(C(F)(F)F)C3)ccc(C(=O)NC3CS(=O)(=O)C3)c2o1` (stereo not shown) [A26], the “effect on mortality, feeding behavior, or growth regulation” value (“effect on mortality, feeding behavior” for short) in test [1], in test [2], in test [3], in test [4] and in test [5] was “little or no effect” throughout.
Regarding `Cc1nc2c(C3=NOC(c4cc(Cl)cc(Cl)c4)(C(F)(F)F)C3)ccc(C(=O)NC3(C)CSC3)c2o1` (stereo not shown) [A27], the “effect on mortality, feeding behavior” value in test [1], in test [2], in test [3], in test [4] and in test [5] was “little or no effect” in each case.
As to `Cc1nc2c(C3=NOC(c4cc(Cl)cc(Cl)c4)(C(F)(F)F)C3)ccc(C(=O)NC3C[S+]([O-])C3)c2o1` (stereo not shown) [A28], the “effect on mortality, feeding behavior” value in test [1], in test [2], in test [3], in test [4] and in test [5] was “little or no effect” in each case.
As to `Cc1nc2c(C3=NOC(c4cc(Cl)cc(Cl)c4)(C(F)(F)F)C3)ccc(C(=O)NC3CSC3)c2o1` (stereo not shown) [A29], the “effect on mortality, feeding behavior” value in test [1], in test [2], in test [3], in test [4] and in test [5] was “little or no effect” each time.
Regarding `Cc1cc(C2=NOC(c3cc(Cl)cc(Cl)c3)(C(F)(F)F)C2Cl)ccc1C(=O)NC1CS(=O)(=O)C1` (stereo not shown) [A32], the pest or weed control at 200 ppm in test [1], in test [2], in test [3], in test [4] and in test [5] was not below 80% in each case.
In the case of `Cc1cc(C2=NOC(c3cc(Cl)cc(Cl)c3)(C(F)(F)F)C2Cl)ccc1C(=O)NC1(C)CSC1` (stereo not shown) [A33], the pest or weed control at 200 ppm in test [1], in test [2], in test [3], in test [4] and in test [5] was not below 80% each time.
Consider `Cc1cc(C2=NOC(c3cc(Cl)cc(Cl)c3)(C(F)(F)F)C2Cl)ccc1C(=O)NC1C[S+]([O-])C1` (stereo not shown) [A34], for which the pest or weed control at 200 ppm in test [1], in test [2], in test [3], in test [4] and in test [5] was not below 80% in each case.
Take `CC1(NC(=O)c2cccc3c(C4=NOC(c5cc(Cl)cc(Cl)c5)(C(F)(F)F)C4)cccc23)CSC1` (stereo not shown) [A36]: the “effect on mortality, feeding behavior” value in test [1], in test [2], in test [3], in test [4] and in test [5] was “little or no effect” in each case.
With `O=C(NC1CS(=O)(=O)C1)c1ccc(C2=NOC(c3cc(Cl)cc(Cl)c3)(C(F)(F)F)C2Br)c2ccccc12` (stereo not shown) [A42], the pest or weed control at 200 ppm in test [1], in test [2], in test [3], in test [4] and in test [5] was not below 80% in each case.
Turning to `CC1(NC(=O)c2ccc(C3=NOC(c4cc(Cl)cc(Cl)c4)(C(F)(F)F)C3Br)c3ccccc23)CSC1` (stereo not shown) [A43], the pest or weed control at 200 ppm in test [1], in test [2], in test [3], in test [4] and in test [5] was not below 80% throughout.
With `O=C(NC1C[S+]([O-])C1)c1ccc(C2=NOC(c3cc(Cl)cc(Cl)c3)(C(F)(F)F)C2Br)c2ccccc12` (stereo not shown) [A44], the pest or weed control at 200 ppm in test [1], in test [2], in test [3], in test [4] and in test [5] was not below 80% each time.
